# From PubChem BioAssay (NCI)
#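 96-well plates; 48 h exposure; 5 concentrations. Endpoints by linear interpolation between flanking doses. Not reached: highest tested concentration assigned. The concentration for 50% growth inhibition is given as GI50. Definition used: TGI = concentration required for complete inhibition of growth.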
# Key:
# Test in all cases: DTP human tumour cell line panel, 48 h
# T-47D breast = tested on: T-47D breast
# A549 NSCLC = tested on: A549 NSCLC
# NCI-H226 lung = tested on: NCI-H226 lung
# UACC-62 melanoma = tested on: UACC-62 melanoma
# DU-145 prostate = tested on: DU-145 prostate
# HCC-2998 colon = tested on: HCC-2998 colon
# M14 melanoma = tested on: M14 melanoma
# RXF 393 renal = tested on: RXF 393 renal
# SR leukemia = tested on: SR leukemia
# SW-620 colon = tested on: SW-620 colon
# OVCAR-4 ovarian = tested on: OVCAR-4 ovarian
# HOP-92 NSCLC = tested on: HOP-92 NSCLC
# OVCAR-8 ovarian = tested on: OVCAR-8 ovarian
# MDA-MB-231 breast = tested on: MDA-MB-231 breast
# PC-3 prostate = tested on: PC-3 prostate
# IGROV1 ovarian = tested on: IGROV1 ovarian
# LOX IMVI melanoma = tested on: LOX IMVI melanoma
# RPMI-8226 leukemia = tested on: RPMI-8226 leukemia
# SN12C renal = tested on: SN12C renal
# HCT-116 colon = tested on: HCT-116 colon
# OVCAR-5 ovarian = tested on: OVCAR-5 ovarian
# SK-OV-3 ovarian = tested on: SK-OV-3 ovarian
# SF-268 CNS = tested on: SF-268 CNS
# 786-0 renal = tested on: 786-0 renal
# EKVX NSCLC = tested on: EKVX NSCLC
# UACC-257 melanoma = tested on: UACC-257 melanoma
# HL-60(TB) leukemia = tested on: HL-60(TB) leukemia
# HT29 colon = tested on: HT29 colon
# SK-MEL-2 melanoma = tested on: SK-MEL-2 melanoma
# SNB-19 CNS = tested on: SNB-19 CNS
# NCI-H23 lung = tested on: NCI-H23 lung
# SK-MEL-5 melanoma = tested on: SK-MEL-5 melanoma
# BT-549 breast = tested on: BT-549 breast
# HS 578T breast = tested on: HS 578T breast
# CAKI-1 renal = tested on: CAKI-1 renal
# MDA-MB-435 = tested on: MDA-MB-435
# ACHN renal = tested on: ACHN renal
# K-562 leukemia = tested on: K-562 leukemia
# SF-295 CNS = tested on: SF-295 CNS
# SF-539 CNS = tested on: SF-539 CNS
# MOLT-4 leukemia = tested on: MOLT-4 leukemia
# OVCAR-3 ovarian = tested on: OVCAR-3 ovarian
# COLO 205 colon = tested on: COLO 205 colon
# A498 renal = tested on: A498 renal
# NCI-H522 lung = tested on: NCI-H522 lung
# CCRF-CEM leukemia = tested on: CCRF-CEM leukemia
# U251 CNS = tested on: U251 CNS
# HOP-62 NSCLC = tested on: HOP-62 NSCLC
# NCI/ADR-RES ovarian = tested on: NCI/ADR-RES ovarian
# MCF7 breast = tested on: MCF7 breast
# HCT-15 colon = tested on: HCT-15 colon
# SK-MEL-28 melanoma = tested on: SK-MEL-28 melanoma
# TK-10 renal = tested on: TK-10 renal
# SNB-75 CNS = tested on: SNB-75 CNS
# NCI-H460 lung = tested on: NCI-H460 lung
# KM12 colon = tested on: KM12 colon
# MALME-3M melanoma = tested on: MALME-3M melanoma
# UO-31 renal = tested on: UO-31 renal
smiles,measurement,setting,value
CSc1nc(N)cc(Oc2ccc(-c3nc(Nc4cccc(C(F)(F)F)c4)n[nH]3)cc2)n1,GI50,T-47D breast,810 nM
same,TGI,T-47D breast,5.11 µM
same,GI50,A549 NSCLC,737 nM
same,TGI,A549 NSCLC,9.51 µM
same,GI50,NCI-H226 lung,1810 nM
same,TGI,NCI-H226 lung,7.69 µM
same,GI50,UACC-62 melanoma,474 nM
same,TGI,UACC-62 melanoma,4.72 µM
same,GI50,DU-145 prostate,1280 nM
same,TGI,DU-145 prostate,9.53 µM
same,GI50,HCC-2998 colon,1330 nM
same,TGI,HCC-2998 colon,4.96 µM
same,GI50,M14 melanoma,483 nM
same,TGI,M14 melanoma,3.85 µM
same,GI50,RXF 393 renal,504 nM
same,TGI,RXF 393 renal,2250 nM
same,GI50,SR leukemia,354 nM
same,TGI,SR leukemia,> 100 µM
same,GI50,SW-620 colon,478 nM
same,TGI,SW-620 colon,13.6 µM
same,GI50,OVCAR-4 ovarian,2060 nM
same,TGI,OVCAR-4 ovarian,13.1 µM
same,GI50,HOP-92 NSCLC,1300 nM
same,TGI,HOP-92 NSCLC,6 µM
same,GI50,OVCAR-8 ovarian,1360 nM
same,TGI,OVCAR-8 ovarian,10.3 µM
same,GI50,MDA-MB-231 breast,1790 nM
same,TGI,MDA-MB-231 breast,8.63 µM
same,GI50,PC-3 prostate,1130 nM
same,TGI,PC-3 prostate,9.41 µM
same,GI50,IGROV1 ovarian,1880 nM
same,TGI,IGROV1 ovarian,18.3 µM
same,GI50,LOX IMVI melanoma,520 nM
same,TGI,LOX IMVI melanoma,2050 nM
same,GI50,RPMI-8226 leukemia,1900 nM
same,TGI,RPMI-8226 leukemia,12.6 µM
same,GI50,SN12C renal,1150 nM
same,TGI,SN12C renal,12.3 µM
same,GI50,HCT-116 colon,456 nM
same,TGI,HCT-116 colon,2150 nM
same,GI50,OVCAR-5 ovarian,2380 nM
same,TGI,OVCAR-5 ovarian,14.6 µM
same,GI50,SK-OV-3 ovarian,516 nM
same,TGI,SK-OV-3 ovarian,3.93 µM
same,GI50,SF-268 CNS,894 nM
same,TGI,SF-268 CNS,12.5 µM
same,GI50,786-0 renal,1280 nM
same,TGI,786-0 renal,4.86 µM
same,GI50,EKVX NSCLC,1660 nM
same,TGI,EKVX NSCLC,10.1 µM
same,GI50,UACC-257 melanoma,776 nM
same,TGI,UACC-257 melanoma,6.34 µM
same,GI50,HL-60(TB) leukemia,2360 nM
same,TGI,HL-60(TB) leukemia,9.23 µM
same,GI50,HT29 colon,432 nM
same,TGI,HT29 colon,2710 nM
same,GI50,SK-MEL-2 melanoma,789 nM
same,TGI,SK-MEL-2 melanoma,6.06 µM
same,GI50,SNB-19 CNS,1220 nM
same,TGI,SNB-19 CNS,14.9 µM
same,GI50,NCI-H23 lung,893 nM
same,TGI,NCI-H23 lung,10.2 µM
same,GI50,SK-MEL-5 melanoma,416 nM
same,TGI,SK-MEL-5 melanoma,1570 nM
same,GI50,BT-549 breast,721 nM
same,TGI,BT-549 breast,6.82 µM
same,GI50,HS 578T breast,642 nM
same,TGI,HS 578T breast,9.29 µM
same,GI50,CAKI-1 renal,640 nM
same,TGI,CAKI-1 renal,3.67 µM
same,GI50,MDA-MB-435,255 nM
same,TGI,MDA-MB-435,744 nM
same,GI50,ACHN renal,873 nM
same,TGI,ACHN renal,9.64 µM
same,GI50,K-562 leukemia,522 nM
same,TGI,K-562 leukemia,> 35.3 µM
same,GI50,SF-295 CNS,784 nM
same,TGI,SF-295 CNS,6.24 µM
same,GI50,SF-539 CNS,621 nM
same,TGI,SF-539 CNS,4.19 µM
same,GI50,MOLT-4 leukemia,1250 nM
same,TGI,MOLT-4 leukemia,> 38.4 µM
same,GI50,OVCAR-3 ovarian,336 nM
same,TGI,OVCAR-3 ovarian,1220 nM
same,GI50,COLO 205 colon,897 nM
same,TGI,COLO 205 colon,4.05 µM
same,GI50,A498 renal,486 nM
same,TGI,A498 renal,5.25 µM
same,GI50,NCI-H522 lung,651 nM
same,TGI,NCI-H522 lung,4.06 µM
same,GI50,CCRF-CEM leukemia,773 nM
same,TGI,CCRF-CEM leukemia,> 43.5 µM
same,GI50,U251 CNS,548 nM
same,TGI,U251 CNS,4.73 µM
same,GI50,HOP-62 NSCLC,593 nM
same,TGI,HOP-62 NSCLC,4.99 µM
same,GI50,NCI/ADR-RES ovarian,1110 nM
same,TGI,NCI/ADR-RES ovarian,7.45 µM
same,GI50,MCF7 breast,357 nM
same,TGI,MCF7 breast,5.02 µM
same,GI50,HCT-15 colon,531 nM
same,TGI,HCT-15 colon,8.07 µM
same,GI50,SK-MEL-28 melanoma,1460 nM
same,TGI,SK-MEL-28 melanoma,10.4 µM
same,GI50,TK-10 renal,1540 nM
same,TGI,TK-10 renal,7.73 µM
same,GI50,SNB-75 CNS,371 nM
same,TGI,SNB-75 CNS,4.46 µM
same,GI50,NCI-H460 lung,440 nM
same,TGI,NCI-H460 lung,3.03 µM
same,GI50,KM12 colon,498 nM
same,TGI,KM12 colon,4.46 µM
same,GI50,MALME-3M melanoma,1190 nM
same,TGI,MALME-3M melanoma,8.42 µM
same,GI50,UO-31 renal,1600 nM
same,TGI,UO-31 renal,11.3 µM
